# Data reported in article PMC9126595, “Identification of 3-(piperazinylmethyl)benzofuran derivatives as novel type II CDK2 inhibitors: design, synthesis, biological evaluation, and in silico insights” (Journal of Enzyme Inhibition and Medicinal Chemistry, 2022).
# Where two headings read alike, the source gives them in different places.
# Assays:
# [1] = system: Panc-1 pancreatic cancer cell line; assay: SRB anti-proliferative assay, Panc-1; assay type: cell-based, human; details: read-out: IC50 Panc-1
# Source text: (§1) The experimental details for the performed biological assays; Sulforhodamine B (SRB) cytotoxicity, CDK2 kinase, Annexin V-FITC apoptosis, and cell cycle assays[86–89] were mentioned in the Supporting Information.
# (§2) 1. Anti-proliferative activity assay
# (§3) The examined human pancreatic cancer (Panc-1), breast cancer (MCF-7), and lung carcinoma (A549) cell lines have been obtained from American Type Culture Collection (ATCC). The cells were maintained in Dulbecco's modified Eagle's medium (DMEM) supplemented with 10% heat inactivated fetal calf serum (GIBCO), penicillin (100 U/ml) and streptomycin (100 µg/ml) at 37 °C in humidified atmosphere containing 5% CO2. […]
# (§4) a 25 cm2 flask in 5 ml of culture medium. The anti-proliferative activity of the tested 3-(piperazinylmethyl)benzofurans (9, 11, 13, 15 and 17) was measured in vitro using the Sulfo-Rhodamine-B stain (SRB) assay. Briefly, cells were plated out in 96-well microtiter plate (0.5X10^4 cells/well) and incubated for 24 h before treatment with the tested hybrids to allow cells to attach to the bottom of the well of the plate. Tested benzofurans were dissolved in DMSO at 1 mg/ml immediately before use and diluted to the appropriate volume just before addition to the cell culture. Different concentrations of tested benzofurans, and Staurosporine were added to the cells (three wells were prepared for each individual dose). Cells were incubated with the hybrids for 48 […]
# (§5) After 48 h cells were fixed, washed, and stained for 30 min with 0.4% (w/v) SRB dissolved in 1% acetic acid. Unbound dye was removed by four washes with 1% acetic acid, and attached stain was recovered with Tris-EDTA buffer. Color intensity was measured in an ELISA reader. The relation between percent of surviving fraction and log drug concentration is plotted to get the survival curve for each cell line. […]
# [2] = system: MCF-7 breast cancer cell line; assay: SRB anti-proliferative assay, MCF-7; assay type: cell-based, human; details: read-out: IC50 MCF-7
# Source text: as §1, §2, §3, §4, §5
# [3] = system: A-549 lung carcinoma cell line; assay: SRB anti-proliferative assay, A-549; assay type: cell-based, human; details: read-out: IC50 A-549
# Source text: as §1, §2, §3, §4, §5
# CDK2 = biological target: T1, CDK2 (Homo sapiens, UniProt P24941); assay: CDK2 kinase inhibitory assay (Promega CDK2 Kinase Enzyme System); assay type: biochemical; details: mean ± SD of three separate experiments
# T1 construct: purchased Promega V2971
# Source text: The experimental details for the performed biological assays; Sulforhodamine B (SRB) cytotoxicity, CDK2 kinase, Annexin V-FITC apoptosis, and cell cycle assays[86–89] were mentioned in the Supporting Information. […]
# 4. CDK Kinase Inhibitory Activity
# CDK2 Kinase Enzyme System (catalog No. V2971) (Promega, Milan, Italy), according to the
# manufacturer’s instructions. […]
# [4] = system: non-tumorigenic human lung fibroblast MRC-5 cell line; assay: Normal cell cytotoxicity, MRC-5; assay type: cell-based
# Protocol: To test the safety of the newly synthesised compounds and their selectivity towards cancer cells, their cytotoxic activity was tested on non-tumorigenic human lung fibroblast MRC-5 cell line.
# Panc-1 cells [5] = assay: Cell cycle analysis (PI flow cytometry); assay type: cell-based, human; details: Panc-1, IC50 dose, 24 h; for proportion of cells in sub-G1 phase: control 2.36%; for proportion of cells in G2/M phase: control 12.17%; for cells population in S phase: control 41.90%; for cells population in G0/G1 phase: control 43.57%
# Protocol: as §3
# a 25 cm2 flask in 5 ml of culture medium. […]
# The concentration required for […]
# concentration), and then cells were washed twice with ice-cold phosphate buffered saline (PBS).
# Subsequently, the treated cells were collected by centrifugation, fixed in ice-cold 70% (v/v) ethanol, washed with PBS, re-suspended with 100 μg/mL RNase, stained with 40 μg/mL PI, and analyzed by flow cytometry using FACS Calibur (Becton Dickinson, BD, Franklin Lakes, NJ, USA). The cell cycle distributions were calculated using CellQuest software 5.1 (Becton
# Panc-1 cells [6] = assay: Annexin V-FITC/PI apoptosis assay; assay type: cell-based, human; details: Panc-1, IC50 concentration; for total apoptotic cells percentage: control 2.41%; for early apoptotic phase percentage: lower right quadrant, control 0.59%; for late apoptotic phase percentage: upper right quadrant, control 0.32%
# Protocol: Anx V flowcytometry assay is featured as a helpful tool to determine whether cells death is due to the physiological apoptosis or to the non-specific necrosis.
# 3. Annexin V-FITC Apoptosis Assay
# Phosphatidylserine externalization was assayed using Annexin V-FITC/PI apoptosis detection kit (BD Biosciences, USA) according to the manufacturer’s instructions. Pancreatic cancer Panc-1 […]
# concentration. Briefly, cells were then harvested via trypsinization, and rinsed twice in PBS followed by binding buffer. Moreover, cells were re-suspended in 100 μL of binding buffer with the addition of 1 μL of FITC-Annexin V followed by an incubation period of 30 min at 4 °C. Cells were then rinsed in binding buffer and resuspended in 150 μL of binding buffer with the addition
# [7] = SRB, 48 h, mean of 3 separate experiments
# [8] = Homo sapiens, PANC-1, SRB, 48 h, mean of 3 separate experiments
# [9] = Homo sapiens, MCF7, SRB, 48 h, mean of 3 separate experiments
# [10] = Homo sapiens, A549, SRB, 48 h, mean of 3 separate experiments
# [11] = MRC5, normal lung fibroblasts, mean of three separate experiments, read-out: IC50 MRC-5
SMILES,IC50 (CDK2) [µM],"IC50 [1, 8] [µM]","IC50 [2, 9] [µM]","IC50 [3, 10] [µM]",melting point [°C],"IC50 [4, 11] [µM]",also measured
"N.N.[Cl][Pt][Cl] [Cisplatin, reference compound]",,,,,,,"IC50 [1, 7]: 6.98 ± 0.35 µM; IC50 [2, 7]: 5.45 ± 0.4 µM; IC50 [3, 7]: 6.72 ± 0.37 µM"
O=C(NNC(=O)c1oc2ccccc2c1CN1CCN(c2ccccc2)CC1)Nc1ccccc1 [Compound 11a],,,,,,,"IC50 ([1]; Homo sapiens, PANC-1, 48 h): 56.8 ± 2.94 µM; IC50 ([2]; Homo sapiens, MCF7, 48 h): 55.9 ± 3.18 µM; IC50 ([3]; Homo sapiens, A549, 48 h): 49.3 ± 3.27 µM; IC50 ([4]; MRC5, read-out: IC50 MRC-5): 178 ± 13 µM"
COc1cccc(NC(=O)NNC(=O)c2oc3ccccc3c2CN2CCN(c3ccccc3)CC2)c1 [Compound 11b],,,,,,,"IC50 ([1]; Homo sapiens, PANC-1, 48 h): 10.2 ± 0.86 µM; IC50 ([2]; Homo sapiens, MCF7, 48 h): 15.2 ± 1.34 µM; IC50 ([3]; Homo sapiens, A549, 48 h): 13.8 ± 1.04 µM; IC50 ([4]; MRC5, read-out: IC50 MRC-5): 121 ± 10 µM"
COc1ccc(NC(=O)NNC(=O)c2oc3ccccc3c2CN2CCN(c3ccccc3)CC2)cc1 [Compound 11c],,,,,,,"IC50 ([1]; Homo sapiens, PANC-1, 48 h): 61.5 ± 4.52 µM; IC50 ([2]; Homo sapiens, MCF7, 48 h): 76.9 ± 5.21 µM; IC50 ([3]; Homo sapiens, A549, 48 h): 57 ± 2.33 µM; IC50 ([4]; MRC5, read-out: IC50 MRC-5): 246 ± 13 µM"
O=C(NNC(=O)c1oc2ccccc2c1CN1CCN(c2ccccc2)CC1)Nc1ccc(Cl)c(C(F)(F)F)c1 [Compound 11d],,,,,,,"IC50 ([1]; Homo sapiens, PANC-1, 48 h): 2.22 ± 0.13 µM; IC50 ([2]; Homo sapiens, MCF7, 48 h): 5.57 ± 0.47 µM; IC50 ([3]; Homo sapiens, A549, 48 h): 2.99 ± 0.21 µM; IC50 ([4]; MRC5, read-out: IC50 MRC-5): 74 ± 5 µM; proportion of cells in sub-G1 phase (Panc-1 cells [5]): 23.04%; proportion of cells in G2/M phase (Panc-1 cells [5]): 27.52%; cells population in S phase (Panc-1 cells [5]): 22.61%; cells population in G0/G1 phase (Panc-1 cells [5]): 26.83%; total apoptotic cells percentage (Panc-1 cells [6]): 29.93%; early apoptotic phase percentage (Panc-1 cells [6]): 2.64%; late apoptotic phase percentage (Panc-1 cells [6]): 15.87%"
COc1ccc(NC(=O)NNC(=O)c2oc3ccccc3c2CN2CCN(c3ccccc3)CC2)cn1 [Compound 11e],,,,,,,"IC50 ([1]; Homo sapiens, PANC-1, 48 h): 54.6 ± 4.22 µM; IC50 ([2]; Homo sapiens, MCF7, 48 h): 48.7 ± 3.54 µM; IC50 ([4]; MRC5, read-out: IC50 MRC-5): 244 ± 18 µM"
O=C(NN=Cc1ccccc1)c1oc2ccccc2c1CN1CCN(c2ccccc2)CC1 [Compound 13a],0.152 ± 0.0077,169 ± 9.41,118 ± 8.39,109 ± 7.59,,> 500,
CC(=NNC(=O)c1oc2ccccc2c1CN1CCN(c2ccccc2)CC1)c1ccccc1 [Compound 15a],0.333 ± 0.017,120 ± 5.77,123 ± 6.82,98.4 ± 5.61,191 to 193,452 ± 28,
O=C(NN=C1CCCc2ccccc21)c1oc2ccccc2c1CN1CCN(c2ccccc2)CC1 [Compound 17],0.0656 ± 0.0033,80.4 ± 4.83,82.8 ± 5.43,58.9 ± 1.88,,284 ± 15,

# Continued, in another order:
IC50 (CDK2) [µM],"IC50 [1, 8] [µM]","IC50 [2, 9] [µM]","IC50 [3, 10] [µM]",melting point [°C],SMILES,"IC50 [4, 11] [µM]",also measured
0.322 ± 0.016,86.9 ± 4.17,118 ± 6.02,85.5 ± 6.21,198 to 200,O=C(NNC(=S)Nc1ccccc1)c1oc2ccccc2c1CN1CCN(c2ccccc2)CC1 [Compound 9a],406 ± 21,
0.0849 ± 0.0043,61.9 ± 3.48,98.5 ± 4.47,80.4 ± 4.87,,COc1cccc(NC(=S)NNC(=O)c2oc3ccccc3c2CN2CCN(c3ccccc3)CC2)c1 [Compound 9b],289 ± 19,
0.214 ± 0.011,103 ± 6.21,86.6 ± 5.28,72.2 ± 5.36,182 to 184,COc1ccc(NC(=S)NNC(=O)c2oc3ccccc3c2CN2CCN(c3ccccc3)CC2)cc1 [Compound 9c],261 ± 20,
0.0777 ± 0.041,27.2 ± 1.87,53.9 ± 3.57,40.4 ± 2.74,,O=C(NNC(=S)Nc1cccc(F)c1)c1oc2ccccc2c1CN1CCN(c2ccccc2)CC1 [Compound 9d],166 ± 14,
0.065 ± 0.0033,3.29 ± 0.2,5.89 ± 0.43,5.24 ± 0.4,218 to 220,O=C(NNC(=S)Nc1ccc(F)cc1)c1oc2ccccc2c1CN1CCN(c2ccccc2)CC1 [Compound 9e],52 ± 3,
0.119 ± 0.0061,126 ± 7.06,127 ± 7.56,127 ± 7.61,,O=C(NNC(=S)Nc1cccc(Cl)c1)c1oc2ccccc2c1CN1CCN(c2ccccc2)CC1 [Compound 9f],391 ± 25,
0.0698 ± 0.0036,122 ± 6.34,121 ± 8.39,111 ± 6.38,197 to 199,O=C(NNC(=S)Nc1ccc(Cl)cc1)c1oc2ccccc2c1CN1CCN(c2ccccc2)CC1 [Compound 9g],342 ± 30,
0.0409 ± 0.0021,0.94 ± 0.1,2.92 ± 0.17,1.71 ± 0.12,,O=C(NNC(=S)Nc1cccc(C(F)(F)F)c1)c1oc2ccccc2c1CN1CCN(c2ccccc2)CC1 [Compound 9h],27.7 ± 1.8,proportion of cells in sub-G1 phase (Panc-1 cells [5]): 30.32%; proportion of cells in G2/M phase (Panc-1 cells [5]): 32.46%; cells population in S phase (Panc-1 cells [5]): 16.66%; cells population in G0/G1 phase (Panc-1 cells [5]): 20.56%; total apoptotic cells percentage (Panc-1 cells [6]): 43.51%; early apoptotic phase percentage (Panc-1 cells [6]): 5.41%; late apoptotic phase percentage (Panc-1 cells [6]): 20.99%
0.0894 ± 0.00462,19.2 ± 1.27,27.3 ± 2.05,29.2 ± 2.06,,CC(=O)c1ccc(NC(=S)NNC(=O)c2oc3ccccc3c2CN2CCN(c3ccccc3)CC2)cc1 [Compound 9i],142 ± 11,
0.0656 ± 0.00331,1.04 ± 0.08,2.98 ± 0.18,1.71 ± 0.1,176 to 178,COc1cccc(C=NNC(=O)c2oc3ccccc3c2CN2CCN(c3ccccc3)CC2)c1 [Compound 13b],18.1 ± 1.3,
0.0526 ± 0.0027,4.47 ± 0.29,13.6 ± 0.94,14.4 ± 1.02,181 to 182,COc1ccc(C=NNC(=O)c2oc3ccccc3c2CN2CCN(c3ccccc3)CC2)cc1 [Compound 13c],121 ± 9,
0.127 ± 0.0065,25.4 ± 1.7,44.4 ± 2.96,28.5 ± 1.92,,COc1ccc(C(C)=NNC(=O)c2oc3ccccc3c2CN2CCN(c3ccccc3)CC2)cc1 [Compound 15b],160 ± 10,
